Results on one molecule are retold here after patent US6627246B2, “Process for coating stents and other medical devices using super-critical carbon dioxide” (Ortho-McNeil Pharmaceutical, Inc., priority 2000, dated 2003).

Structures are written as SMILES.

A short description of series [1]: Determination of RWJ-53308 on the PLGA coated stent (24 h water maceration, UV 261 nm). Format: physicochemical. Particulars: macerated 24 hours in 2 mL water, UV absorbance 261 nm. The method, then:
A coated stent obtained in step b above was placed in a tube with 2 mL. water. The coated stent was allowed to macerate for 24 hours. The aqueous supernatant was drained, filtered and UV absorbance was read at 261 nm. The amount of RWJ-53308 on the stent was calculated by comparing the absorbance value of a standard solution containing 147 μg/mL solution of RWJ-53308. Thus the supernatant obtained by extracting the drug from the PLGA coated stent contained 105 μg of RWJ-53308.

A short description of series [2]: In-vitro release study of RWJ-53308 from PLGA coated stent. Format: physicochemical. Particulars: from PLGA coated stent in 2 mL water. As for the experimental part:
A coated stent obtained in step b was placed in a tube with 2 mL of water. A 1 mL. aliquot was taken at the 1 hr and at the 17.5 hour time point. This 1 mL. aliquot was replaced with fresh water at each sampling. The sampled aliquot was analyzed by reading UV absorbance at 261 nm. The drug concentration was calculated by comparing the absorbance of a standard solution containing 147 μg/mL aqueous solution of RWJ-53308.
It was observed that approx. 66 ug of RWJ-53308 was released at 1 hour and a cumulative amount of approx. 134 ug was released at 17.5 hours as shown in FIG. 1.

On to `O=C(O)C[C@H](NC(=O)[C@@H]1CCCN(C(=O)CCC2CCNCC2)C1)c1cccnc1` [RWJ-53308, 3-Pyridinepropanoic acid, b-[[[(3R)-1-[1-oxo-3-(4-piperidinyl)propyl]-3-piperidinyl]carbonyl]amino]-, (bS)-(9CI)], for which the “amount of RWJ-53308 in supernatant extracted from PLGA coated stent” value in series [1] came out at 105 µg. Moreover, the “amount of RWJ-53308 released” value in series [2] (at 1 hour) is recorded as “approx. 66 ug”. For the same molecule, the “cumulative amount of RWJ-53308 released” value in series [2] (at 17.5 hours) is given as “approx. 134 ug”.
